The source made the active and inactive calls. No cut-off for these calls is given here.
What was measured:
[1] = molecular target: 5-hydroxytryptamine receptor 1B (Homo sapiens, UniProt P28222); assay: GPCRScan assay: inhibition of 5-HT1B; parameters: radioligand conc. used [nm] 0.6 – 1.5, parental cells stable HEK
[2] = molecular target: 5-hydroxytryptamine receptor 2A (Homo sapiens, UniProt P28223); assay: GPCRScan assay: inhibition of 5-HT2A; parameters: radioligand conc. used [nm] 1.2 – 2.4, parental cells HEKT
D(2) dopamine receptor = D(2) dopamine receptor (Homo sapiens, UniProt P14416); assay: GPCRScan assay: inhibition of D2; parameters: radioligand conc. used [nm] 0.4 – 1.0, parental cells stable fibroblast
[3] = molecular target: Kappa-type opioid receptor (Homo sapiens, UniProt P41145); assay: GPCRScan assay: inhibition of KOR; parameters: radioligand conc. used [nm] 0.6 – 1.2, parental cells stable HEK
[4] = molecular target: Amyloid-beta precursor protein (Homo sapiens, UniProt P05067); assay: Aβ42 inhibition assay
[5] = tested on: Tyrosine-protein kinase ABL1 (Homo sapiens), P00519 [Q252H]; conditions: Compound concentration 1000.0 nM
[6] = molecular target: Ankyrin repeat and protein kinase domain-containing protein 1 (Homo sapiens) (UniProt Q8NFD2); conditions: Compound concentration 1000.0 nM
[7] = molecular target: Mitogen-activated protein kinase kinase kinase 5 (Homo sapiens) (UniProt Q99683); conditions: Compound concentration 1000.0 nM
[8] = molecular target: Tyrosine-protein kinase receptor UFO (Homo sapiens) (UniProt P30530); conditions: Compound concentration 1000.0 nM
[9] = molecular target: Bone morphogenetic protein receptor type-2 (Homo sapiens) (UniProt Q13873); conditions: Compound concentration 1000.0 nM
[10] = molecular target: Calcium/calmodulin-dependent protein kinase type 1B (Homo sapiens) (UniProt Q6P2M8); conditions: Compound concentration 1000.0 nM
[11] = molecular target: Calcium/calmodulin-dependent protein kinase kinase 1 (Homo sapiens) (UniProt Q8N5S9); conditions: Compound concentration 1000.0 nM
[12] = molecular target: Casein kinase I isoform gamma-1 (Homo sapiens) (UniProt Q9HCP0); conditions: Compound concentration 1000.0 nM
[13] = molecular target: Dual specificity tyrosine-phosphorylation-regulated kinase 1B (Homo sapiens) (UniProt Q9Y463); conditions: Compound concentration 1000.0 nM
[14] = molecular target: Ephrin type-A receptor 2 (Homo sapiens) (UniProt P29317); conditions: Compound concentration 1000.0 nM
[15] = molecular target: Ephrin type-A receptor 6 (Homo sapiens) (UniProt Q9UF33); conditions: Compound concentration 1000.0 nM
[16] = molecular target: Ephrin type-A receptor 7 (Homo sapiens) (UniProt Q15375); conditions: Compound concentration 1000.0 nM
[17] = molecular target: Mitogen-activated protein kinase 6 (Homo sapiens) (UniProt Q16659); conditions: Compound concentration 1000.0 nM
[18] = molecular target: Mitogen-activated protein kinase 4 (Homo sapiens) (UniProt P31152); conditions: Compound concentration 1000.0 nM
[19] = tested on: Fibroblast growth factor receptor 3 (Homo sapiens), P22607 [G697C]; conditions: Compound concentration 1000.0 nM
[20] = molecular target: Tyrosine-protein kinase Fgr (Homo sapiens) (UniProt P09769); conditions: Compound concentration 1000.0 nM
[21] = molecular target: Receptor-type tyrosine-protein kinase FLT3 (Homo sapiens) (UniProt P36888); conditions: Compound concentration 1000.0 nM
[22] = molecular target: Rhodopsin kinase GRK7 (Homo sapiens) (UniProt Q8WTQ7); conditions: Compound concentration 1000.0 nM
[23] = tested on: Mast/stem cell growth factor receptor Kit (Homo sapiens), P10721 [D816V]; conditions: Compound concentration 1000.0 nM
[24] = molecular target: Serine/threonine-protein kinase 24 (Homo sapiens) (UniProt Q9Y6E0); conditions: Compound concentration 1000.0 nM
[25] = molecular target: Serine/threonine-protein kinase 26 (Homo sapiens) (UniProt Q9P289); conditions: Compound concentration 1000.0 nM
[26] = molecular target: Myosin-IIIa (Homo sapiens) (UniProt Q8NEV4); conditions: Compound concentration 1000.0 nM
[27] = molecular target: Serine/threonine-protein kinase Nek1 (Homo sapiens) (UniProt Q96PY6); conditions: Compound concentration 1000.0 nM
[28] = molecular target: Cyclin-dependent kinase 17 (Homo sapiens) (UniProt Q00537); conditions: Compound concentration 1000.0 nM
[29] = molecular target: Phosphatidylinositol 4,5-bisphosphate 3-kinase catalytic subunit delta isoform (Homo sapiens) (UniProt O00329); conditions: Compound concentration 1000.0 nM
[30] = molecular target: Phosphatidylinositol 4-kinase beta (Homo sapiens) (UniProt Q9UBF8); conditions: Compound concentration 1000.0 nM
[31] = molecular target: Serine/threonine-protein kinase PLK1 (Homo sapiens) (UniProt P53350); conditions: Compound concentration 1000.0 nM
[32] = molecular target: Protein kinase C delta type (Homo sapiens) (UniProt Q05655); conditions: Compound concentration 1000.0 nM
[33] = molecular target: Serine/threonine-protein kinase D1 (Homo sapiens) (UniProt Q15139); conditions: Compound concentration 1000.0 nM
[34] = molecular target: Protein-tyrosine kinase 2-beta (Homo sapiens) (UniProt Q14289); conditions: Compound concentration 1000.0 nM
[35] = molecular target: RAF proto-oncogene serine/threonine-protein kinase (Homo sapiens) (UniProt P04049); conditions: Compound concentration 1000.0 nM
[36] = molecular target: Serine/threonine-protein kinase RIO3 (Homo sapiens) (UniProt O14730); conditions: Compound concentration 1000.0 nM
[37] = molecular target: Ribosomal protein S6 kinase alpha-5 (Homo sapiens) (UniProt O75582); conditions: Compound concentration 1000.0 nM
[38] = molecular target: Ribosomal protein S6 kinase alpha-2 (Homo sapiens) (UniProt Q15349); conditions: Compound concentration 1000.0 nM
[39] = molecular target: Ribosomal protein S6 kinase alpha-6 (Homo sapiens) (UniProt Q9UK32); conditions: Compound concentration 1000.0 nM
[40] = molecular target: Serine/threonine-protein kinase Sgk1 (Homo sapiens) (UniProt O00141); conditions: Compound concentration 1000.0 nM
[41] = molecular target: Tyrosine-protein kinase Srms (Homo sapiens) (UniProt Q9H3Y6); conditions: Compound concentration 1000.0 nM
[42] = molecular target: Mitogen-activated protein kinase kinase kinase 7 (Homo sapiens) (UniProt O43318); conditions: Compound concentration 1000.0 nM
[43] = molecular target: TGF-beta receptor type-1 (Homo sapiens) (UniProt P36897); conditions: Compound concentration 1000.0 nM
[44] = molecular target: Serine/threonine-protein kinase VRK2 (Homo sapiens) (UniProt Q86Y07); conditions: Compound concentration 1000.0 nM
[45] = molecular target: Serine/threonine-protein kinase WNK1 (Homo sapiens) (UniProt Q9H4A3); conditions: Compound concentration 1000.0 nM

Kappa-type opioid receptor, sequence (P41145 whole entry): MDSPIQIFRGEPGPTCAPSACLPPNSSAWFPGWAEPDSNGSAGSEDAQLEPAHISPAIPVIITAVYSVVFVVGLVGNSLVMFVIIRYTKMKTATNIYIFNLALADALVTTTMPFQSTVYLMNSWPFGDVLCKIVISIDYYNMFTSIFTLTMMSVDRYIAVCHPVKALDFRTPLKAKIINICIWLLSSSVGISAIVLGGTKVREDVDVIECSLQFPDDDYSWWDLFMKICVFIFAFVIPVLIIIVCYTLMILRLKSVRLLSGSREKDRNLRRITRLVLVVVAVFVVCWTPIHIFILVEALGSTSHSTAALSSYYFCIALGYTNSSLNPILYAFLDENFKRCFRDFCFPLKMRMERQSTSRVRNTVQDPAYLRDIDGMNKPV
Ephrin type-A receptor 2 (Homo sapiens), sequence (P29317 whole entry): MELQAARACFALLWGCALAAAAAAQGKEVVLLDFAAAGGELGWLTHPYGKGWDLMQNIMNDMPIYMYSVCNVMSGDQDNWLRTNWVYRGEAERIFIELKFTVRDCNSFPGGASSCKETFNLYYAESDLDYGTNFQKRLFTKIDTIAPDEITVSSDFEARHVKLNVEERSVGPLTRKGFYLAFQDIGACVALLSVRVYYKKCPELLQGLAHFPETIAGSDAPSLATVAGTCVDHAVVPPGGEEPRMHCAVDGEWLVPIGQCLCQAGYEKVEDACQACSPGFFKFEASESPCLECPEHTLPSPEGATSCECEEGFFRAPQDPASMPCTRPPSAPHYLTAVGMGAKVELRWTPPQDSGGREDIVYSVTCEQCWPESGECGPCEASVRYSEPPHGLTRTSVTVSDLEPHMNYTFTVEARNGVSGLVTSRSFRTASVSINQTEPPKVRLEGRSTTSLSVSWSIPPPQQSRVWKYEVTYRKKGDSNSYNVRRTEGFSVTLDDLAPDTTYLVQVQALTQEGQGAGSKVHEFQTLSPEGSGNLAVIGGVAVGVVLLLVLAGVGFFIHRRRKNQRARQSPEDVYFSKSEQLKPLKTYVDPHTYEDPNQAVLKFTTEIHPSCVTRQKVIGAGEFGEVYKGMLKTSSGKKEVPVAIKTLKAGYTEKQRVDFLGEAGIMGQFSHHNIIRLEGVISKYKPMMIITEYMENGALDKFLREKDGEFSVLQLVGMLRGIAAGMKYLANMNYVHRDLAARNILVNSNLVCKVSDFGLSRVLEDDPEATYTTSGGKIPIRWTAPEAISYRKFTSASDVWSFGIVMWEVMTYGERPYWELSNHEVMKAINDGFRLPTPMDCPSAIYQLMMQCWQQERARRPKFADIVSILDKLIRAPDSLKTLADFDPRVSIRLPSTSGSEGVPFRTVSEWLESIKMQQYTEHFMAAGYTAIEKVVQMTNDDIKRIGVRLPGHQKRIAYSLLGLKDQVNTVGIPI
Bone morphogenetic protein receptor type-2 (Homo sapiens), sequence (Q13873 whole entry): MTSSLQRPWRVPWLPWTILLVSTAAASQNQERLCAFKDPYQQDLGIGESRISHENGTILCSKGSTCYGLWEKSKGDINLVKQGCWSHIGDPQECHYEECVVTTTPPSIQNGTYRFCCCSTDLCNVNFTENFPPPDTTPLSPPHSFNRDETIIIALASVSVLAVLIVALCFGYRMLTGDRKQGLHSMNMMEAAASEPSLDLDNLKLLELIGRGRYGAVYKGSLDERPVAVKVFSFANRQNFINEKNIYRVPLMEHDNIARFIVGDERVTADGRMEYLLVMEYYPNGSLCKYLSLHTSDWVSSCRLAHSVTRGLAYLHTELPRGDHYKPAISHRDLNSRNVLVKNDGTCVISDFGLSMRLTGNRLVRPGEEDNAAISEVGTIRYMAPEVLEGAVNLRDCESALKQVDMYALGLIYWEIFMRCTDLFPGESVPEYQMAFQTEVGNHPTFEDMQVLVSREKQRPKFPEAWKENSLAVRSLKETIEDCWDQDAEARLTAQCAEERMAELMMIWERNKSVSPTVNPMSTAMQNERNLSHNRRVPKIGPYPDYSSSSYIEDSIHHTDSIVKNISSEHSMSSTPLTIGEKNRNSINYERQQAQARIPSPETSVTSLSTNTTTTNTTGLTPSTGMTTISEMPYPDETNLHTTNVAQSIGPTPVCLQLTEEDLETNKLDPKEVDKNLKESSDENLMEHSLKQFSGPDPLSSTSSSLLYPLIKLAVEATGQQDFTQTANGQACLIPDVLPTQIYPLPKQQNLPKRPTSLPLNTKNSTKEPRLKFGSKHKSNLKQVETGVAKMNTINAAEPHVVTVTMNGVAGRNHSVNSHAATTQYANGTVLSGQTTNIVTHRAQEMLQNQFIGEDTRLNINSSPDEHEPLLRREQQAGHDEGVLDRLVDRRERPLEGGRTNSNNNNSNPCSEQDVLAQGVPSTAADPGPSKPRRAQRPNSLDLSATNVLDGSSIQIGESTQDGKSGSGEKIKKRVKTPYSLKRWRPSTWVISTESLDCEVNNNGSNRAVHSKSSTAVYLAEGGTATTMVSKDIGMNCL
Serine/threonine-protein kinase D1 (Homo sapiens), sequence (Q15139 whole entry): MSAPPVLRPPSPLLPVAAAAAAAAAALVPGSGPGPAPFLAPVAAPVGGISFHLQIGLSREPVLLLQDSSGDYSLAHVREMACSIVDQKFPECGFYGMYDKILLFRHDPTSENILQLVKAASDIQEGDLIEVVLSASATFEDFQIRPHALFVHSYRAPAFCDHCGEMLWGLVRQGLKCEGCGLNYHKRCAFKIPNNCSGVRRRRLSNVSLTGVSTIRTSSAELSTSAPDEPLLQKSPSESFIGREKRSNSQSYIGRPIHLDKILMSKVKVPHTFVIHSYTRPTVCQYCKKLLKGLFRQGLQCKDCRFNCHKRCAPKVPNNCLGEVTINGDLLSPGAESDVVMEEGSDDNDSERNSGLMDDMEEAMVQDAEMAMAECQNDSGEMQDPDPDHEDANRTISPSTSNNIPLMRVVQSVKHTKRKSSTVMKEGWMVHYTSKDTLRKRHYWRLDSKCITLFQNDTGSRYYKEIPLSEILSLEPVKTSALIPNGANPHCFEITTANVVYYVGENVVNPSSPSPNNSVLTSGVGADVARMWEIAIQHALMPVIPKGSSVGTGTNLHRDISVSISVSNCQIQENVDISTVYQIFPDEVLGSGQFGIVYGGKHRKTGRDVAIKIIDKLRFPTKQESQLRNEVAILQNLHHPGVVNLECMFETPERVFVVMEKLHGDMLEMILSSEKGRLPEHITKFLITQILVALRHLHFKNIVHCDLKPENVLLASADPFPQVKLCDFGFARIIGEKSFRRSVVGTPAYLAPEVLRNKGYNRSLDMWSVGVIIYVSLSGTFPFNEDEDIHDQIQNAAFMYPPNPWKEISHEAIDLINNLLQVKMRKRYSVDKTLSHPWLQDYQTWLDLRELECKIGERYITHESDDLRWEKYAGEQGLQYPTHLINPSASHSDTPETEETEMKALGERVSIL
Calcium/calmodulin-dependent protein kinase type 1B (Homo sapiens), sequence (Q6P2M8 whole entry): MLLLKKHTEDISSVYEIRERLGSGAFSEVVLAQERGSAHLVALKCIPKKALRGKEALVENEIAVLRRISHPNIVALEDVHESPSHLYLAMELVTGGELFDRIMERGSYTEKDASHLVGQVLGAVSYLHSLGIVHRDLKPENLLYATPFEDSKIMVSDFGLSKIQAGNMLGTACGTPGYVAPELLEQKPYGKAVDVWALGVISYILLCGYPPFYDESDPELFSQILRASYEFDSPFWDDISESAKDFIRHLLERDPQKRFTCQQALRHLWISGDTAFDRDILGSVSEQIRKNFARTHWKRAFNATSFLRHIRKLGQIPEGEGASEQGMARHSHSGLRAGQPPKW
Serine/threonine-protein kinase PLK1 (Homo sapiens), sequence (P53350 whole entry): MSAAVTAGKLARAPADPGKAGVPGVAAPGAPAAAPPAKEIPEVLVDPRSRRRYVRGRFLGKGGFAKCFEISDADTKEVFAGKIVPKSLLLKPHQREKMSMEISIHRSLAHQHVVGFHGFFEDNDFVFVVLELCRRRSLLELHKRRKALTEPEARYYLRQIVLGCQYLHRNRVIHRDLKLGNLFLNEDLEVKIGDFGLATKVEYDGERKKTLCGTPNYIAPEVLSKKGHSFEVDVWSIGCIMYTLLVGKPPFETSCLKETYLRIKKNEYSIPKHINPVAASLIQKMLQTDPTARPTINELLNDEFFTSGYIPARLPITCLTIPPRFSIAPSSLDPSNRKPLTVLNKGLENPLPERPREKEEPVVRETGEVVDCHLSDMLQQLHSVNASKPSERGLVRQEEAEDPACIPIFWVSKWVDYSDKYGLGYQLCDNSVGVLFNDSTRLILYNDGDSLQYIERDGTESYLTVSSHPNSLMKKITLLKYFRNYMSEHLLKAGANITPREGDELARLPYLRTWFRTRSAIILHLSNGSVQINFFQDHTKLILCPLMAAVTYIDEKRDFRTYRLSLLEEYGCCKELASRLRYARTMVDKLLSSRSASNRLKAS
Ribosomal protein S6 kinase alpha-2 (Homo sapiens), sequence (Q15349 whole entry): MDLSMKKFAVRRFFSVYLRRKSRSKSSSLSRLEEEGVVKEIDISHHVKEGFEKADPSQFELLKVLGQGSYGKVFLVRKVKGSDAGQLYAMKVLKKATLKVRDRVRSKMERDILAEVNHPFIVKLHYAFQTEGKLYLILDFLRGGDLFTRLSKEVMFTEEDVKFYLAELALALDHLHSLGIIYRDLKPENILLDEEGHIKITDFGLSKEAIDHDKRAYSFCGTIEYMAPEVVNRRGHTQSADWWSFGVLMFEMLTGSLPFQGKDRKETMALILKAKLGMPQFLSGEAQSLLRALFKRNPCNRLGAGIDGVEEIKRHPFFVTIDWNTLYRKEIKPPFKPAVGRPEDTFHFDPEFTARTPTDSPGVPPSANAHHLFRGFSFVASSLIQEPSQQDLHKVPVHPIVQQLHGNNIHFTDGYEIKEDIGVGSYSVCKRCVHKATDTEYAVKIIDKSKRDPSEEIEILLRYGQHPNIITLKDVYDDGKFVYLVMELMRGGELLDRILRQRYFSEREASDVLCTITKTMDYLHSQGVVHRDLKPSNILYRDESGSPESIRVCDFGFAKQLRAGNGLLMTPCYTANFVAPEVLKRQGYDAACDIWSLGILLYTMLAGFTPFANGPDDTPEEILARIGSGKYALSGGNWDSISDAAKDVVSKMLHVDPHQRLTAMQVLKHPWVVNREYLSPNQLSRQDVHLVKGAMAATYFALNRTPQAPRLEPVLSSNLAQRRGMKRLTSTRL

For `CC(C)(C)OC(=O)N1CCCC1CNC1CCC(c2cc(F)ccc2F)(S(=O)(=O)c2ccc(Cl)cc2)CC1` (configuration not stated) [GSI-NC], the Ki [1] was 946 nM, the Ki [2] was 478 nM and the Ki (D(2) dopamine receptor) was 1220 nM. For the same compound, the Ki ([3]; read-out: Ki) was 3300 nM and the Ki ([3]; read-out: pKi (converted)) was 3310 nM.

`O=S(=O)(NC1CCC(c2cc(F)ccc2F)(S(=O)(=O)c2ccc(Cl)cc2)CC1)C(F)(F)F` (configuration not stated) [MRK-560] was tested, and the IC50 [4] was < 0.5 nM (active), the residual activity [5] was 95% and the residual activity [6] was 92%. It also gave a residual activity [7] of 80%, a residual activity [8] of 100% and a residual activity [9] of 100%. It also gave a residual activity [10] of 100%, a residual activity [11] of 100% and a residual activity [12] of 86%. For the same compound, the residual activity [13] was 100%, the residual activity [14] was 84% and the residual activity [15] was 100%. It also gave a residual activity [16] of 100%, a residual activity [17] of 100% and a residual activity [18] of 95%. It also gave a residual activity [19] of 100%, a residual activity [20] of 99% and a residual activity [21] of 100%. For the same compound, the residual activity [22] was 100%, the residual activity [23] was 92% and the residual activity [24] was 99%. It also gave a residual activity [25] of 85%, a residual activity [26] of 91% and a residual activity [27] of 100%. It also gave a residual activity [28] of 100%, a residual activity [29] of 100% and a residual activity [30] of 82%. The residual activity [31] was 100%, the residual activity [32] was 100% and the residual activity [33] was 100%. For the same compound, the residual activity [34] was 100%, the residual activity [35] was 100% and the residual activity [36] was 83%. For the same compound, the residual activity [37] was 71%, the residual activity [38] was 95% and the residual activity [39] was 83%. For the same compound, the residual activity [40] was 83%, the residual activity [41] was 100% and the residual activity [42] was 100%. It also gave a residual activity [43] of 100%, a residual activity [44] of 100% and a residual activity [45] of 100%.
